According to US8889874B2, “Imidazolone-chalcone derivatives as potential anticancer agent and process for the preparation thereof” (Council of Scientific and Industrial Research, priority 2010, dated 2014):
Where two headings read alike, the source gives them in different places.

Tests used:
Assay type in all cases: cell-based, human
[1] = tested on: Leukemia cancer cell lines; experiment: NCI anticancer screen, SRB assay, panel summary; conditions: Homo sapiens
Outline: (§1)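 Sulforhodamine B protein assay read cell growth after 48 h of continuous compound exposure. Dose-response curves per cell line used at least five 10-fold-diluted concentrations, within a panel of fifty-three human lines from nine tumour types.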

Colon cancer cell lines = experiment: NCI anticancer screen, SRB assay, panel summary; conditions: for GI50: Homo sapiens
Outline: as §1

[2] = tested on: Ovarian cancer cell lines; experiment: NCI anticancer screen, SRB assay, panel summary; conditions: Homo sapiens
Outline: as §1

Renal cancer cell lines = experiment: NCI anticancer screen, SRB assay, panel summary; conditions: Homo sapiens
Outline: as §1

[3] = tested on: Melanoma cancer cell lines; experiment: NCI anticancer screen, SRB assay, panel summary; conditions: for GI50: Homo sapiens
Outline: as §1

[4] = tested on: Prostate cancer cell lines; experiment: NCI anticancer screen, SRB assay, panel summary
Outline: as §1

Breast cancer cell lines = experiment: NCI anticancer screen, SRB assay, panel summary; conditions: Homo sapiens
Outline: as §1

[5] = tested on: Non-small cell lung cancer cell lines; experiment: NCI anticancer screen, SRB assay, panel summary; conditions: Homo sapiens
Outline: as §1

CNS cancer cell lines = experiment: NCI anticancer screen, SRB assay, panel summary; conditions: for GI50: Homo sapiens
Outline: as §1

RXF 393 (renal) = experiment: NCI anticancer screen, SRB assay, 48 h; conditions: Homo sapiens
Outline: as §1

SK-MEL-28 (melanoma) = experiment: NCI anticancer screen, SRB assay, 48 h; conditions: Homo sapiens
Outline: as §1

OVCAR-3 (ovarian) = experiment: NCI anticancer screen, SRB assay, 48 h; conditions: Homo sapiens
Outline: as §1

SK-OV-3 (ovarian) = experiment: NCI anticancer screen, SRB assay, 48 h; conditions: Homo sapiens
Outline: as §1

HCT-116 (colon) = experiment: NCI anticancer screen, SRB assay, 48 h; conditions: Homo sapiens
Outline: as §1

BT-549 (breast) = experiment: NCI anticancer screen, SRB assay, 48 h; conditions: Homo sapiens
Outline: as §1

SF-539 (CNS) = experiment: NCI anticancer screen, SRB assay, 48 h; conditions: Homo sapiens
Outline: as §1

SW-620 (colon) = experiment: NCI anticancer screen, SRB assay, 48 h; conditions: Homo sapiens
Outline: as §1

SF-268 (CNS) = experiment: NCI anticancer screen, SRB assay, 48 h; conditions: Homo sapiens
Outline: as §1

SK-MEL-2 (melanoma) = experiment: NCI anticancer screen, SRB assay, 48 h; conditions: Homo sapiens
Outline: as §1

UO-31 (renal) = experiment: NCI anticancer screen, SRB assay, 48 h; conditions: Homo sapiens
Outline: as §1

UACC-62 (melanoma) = experiment: NCI anticancer screen, SRB assay, 48 h; conditions: Homo sapiens
Outline: as §1

SF-295 (CNS) = experiment: NCI anticancer screen, SRB assay, 48 h; conditions: Homo sapiens
Outline: as §1

M14 (melanoma) = experiment: NCI anticancer screen, SRB assay, 48 h; conditions: Homo sapiens
Outline: as §1

[6] = tested on: NCI-H522 (non-small cell lung); experiment: NCI anticancer screen, SRB assay, 48 h; conditions: Homo sapiens
Outline: as §1

TD-47D (breast) = experiment: NCI anticancer screen, SRB assay, 48 h; conditions: Homo sapiens
Outline: as §1

[7] = tested on: NCI-H460 (non-small cell lung); experiment: NCI anticancer screen, SRB assay, 48 h; conditions: Homo sapiens
Outline: as §1

[8] = 48 h exposure, SRB, read-out: GI50
[9] = read-out: pGI50 (-log of molar concentration causing 50% inhibition of net cell growth) (converted)

Question: Which results are given for `COc1cc(/C=C/C(=O)c2cccc(-n3cc(-c4ccccc4)[nH]c3=O)c2)cc(OC)c1OC` [5a, 4-phenyl-1-3-[(E)-3-(3,4,5-trimethoxyphenyl)-2-propenoyl]phenyl-2,3-dihydro-1H-2-imidazolone]?
Answer: GI50 ([1]; Leukemia panel, log of concentration in mol/L causing 50% inhibition of net cell growth, read-out: mean graph midpoint (MG_MID) of Log10 GI50 (converted)): 562 nM; LC50 ([1]; Leukemia panel, log of concentration leading to 50% net cell death, read-out: mean graph midpoint (MG_MID) of Log10 LC50 (converted)): ≥ 100 µM; GI50 ([1]; two leukemia cancer cell lines (RPMI-8226 and K-562), exposure at least 48 hrs, read-out: GI50, range over the panel): 500 to 620 nM; mean graph midpoint (MG_MID) of Log10 LC50 (Colon cancer cell lines; Colon panel, log of concentration leading to 50% net cell death): 5.23; GI50 (Colon cancer cell lines; Colon panel, log of concentration in mol/L causing 50% inhibition of net cell growth, read-out: mean graph midpoint (MG_MID) of Log10 GI50 (converted)): 832 nM; GI50 (Colon cancer cell lines; seven colon cancer cell lines, exposure at least 48 hrs, read-out: GI50, range over the panel): 330 to 1510 nM; GI50 ([2]; Ovarian panel, log of concentration in mol/L causing 50% inhibition of net cell growth, read-out: mean graph midpoint (MG_MID) of Log10 GI50 (converted)): 1740 nM; LC50 ([2]; Ovarian panel, log of concentration leading to 50% net cell death, read-out: mean graph midpoint (MG_MID) of Log10 LC50 (converted)): 42.7 µM; GI50 ([2]; six ovarian cancer cell lines, exposure at least 48 hrs, read-out: GI50, range over the panel): 1100 to 3270 nM; GI50 (Renal cancer cell lines; Renal panel, log of concentration in mol/L causing 50% inhibition of net cell growth, read-out: mean graph midpoint (MG_MID) of Log10 GI50 (converted)): 1910 nM; LC50 (Renal cancer cell lines; Renal panel, log of concentration leading to 50% net cell death, read-out: mean graph midpoint (MG_MID) of Log10 LC50 (converted)): 17 µM; GI50 (Renal cancer cell lines; eight renal cancer cell lines, exposure at least 48 hrs, read-out: GI50, range over the panel): 1380 to 3020 nM; GI50 ([3]; Melanoma panel, log of concentration in mol/L causing 50% inhibition of net cell growth, read-out: mean graph midpoint (MG_MID) of Log10 GI50 (converted)): 1320 nM; GI50 ([3]; nine melanoma cancer cell lines, exposure at least 48 hrs, read-out: GI50, range over the panel): 480 to 2060 nM; mean graph midpoint (MG_MID) of Log10 LC50 ([3]; Melanoma panel, log of concentration leading to 50% net cell death): 5.02; GI50 ([4]; Homo sapiens, log of concentration in mol/L causing 50% inhibition of net cell growth, read-out: mean graph midpoint (MG_MID) of Log10 GI50 (converted)): 3.24 µM; LC50 ([4]; Homo sapiens, log of concentration leading to 50% net cell death, read-out: mean graph midpoint (MG_MID) of Log10 LC50 (converted)): ≥ 100 µM; mean graph midpoint (MG_MID) of Log10 TGI ([4]; log of concentration resulting in total inhibition of net cell growth): 4.68; GI50 (Breast cancer cell lines; Breast panel, log of concentration in mol/L causing 50% inhibition of net cell growth, read-out: mean graph midpoint (MG_MID) of Log10 GI50 (converted)): 1580 nM; LC50 (Breast cancer cell lines; Breast panel, log of concentration leading to 50% net cell death, read-out: mean graph midpoint (MG_MID) of Log10 LC50 (converted)): 38 µM; GI50 (Breast cancer cell lines; five breast cancer cell lines, exposure at least 48 hrs, read-out: GI50, range over the panel): 310 to 3410 nM; GI50 ([5]; Non-small cell lung panel, log of concentration in mol/L causing 50% inhibition of net cell growth, read-out: mean graph midpoint (MG_MID) of Log10 GI50 (converted)): 3.09 µM; LC50 ([5]; Non-small cell lung panel, log of concentration leading to 50% net cell death, read-out: mean graph midpoint (MG_MID) of Log10 LC50 (converted)): 32.4 µM; GI50 ([5]; nine non-small cell lung cancer cell lines, exposure at least 48 hrs, read-out: GI50, range over the panel): 0.95 to 14.6 µM; mean graph midpoint (MG_MID) of Log10 LC50 (CNS cancer cell lines; CNS panel, log of concentration leading to 50% net cell death): 5.13; GI50 (CNS cancer cell lines; CNS panel, log of concentration in mol/L causing 50% inhibition of net cell growth, read-out: mean graph midpoint (MG_MID) of Log10 GI50 (converted)): 1860 nM; GI50 (CNS cancer cell lines; six CNS cancer cell lines, exposure at least 48 hrs, read-out: GI50, range over the panel): 630 to 4470 nM; GI50 (RXF 393 (renal); RXF 393, 48 h exposure, SRB, read-out: GI50): 1710 nM; GI50 (RXF 393 (renal); RXF-393, read-out: pGI50 (-log of molar concentration causing 50% inhibition of net cell growth) (converted)): 1700 nM; GI50 (SK-MEL-28 (melanoma); [8]): 1740 nM; GI50 (SK-MEL-28 (melanoma); [9]): 1740 nM; GI50 (OVCAR-3 (ovarian); [8]): 1230 nM; GI50 (OVCAR-3 (ovarian); [9]): 1230 nM; GI50 (SK-OV-3 (ovarian); [8]): 3.27 µM; GI50 (SK-OV-3 (ovarian); [9]): 3.24 µM; GI50 (HCT-116 (colon); [8]): 330 nM; GI50 (HCT-116 (colon); [9]): 331 nM; GI50 (BT-549 (breast); [8]): 1930 nM; GI50 (BT-549 (breast); [9]): 1950 nM; GI50 (SF-539 (CNS); [8]): 1680 nM; GI50 (SF-539 (CNS); [9]): 1700 nM; GI50 (SW-620 (colon); [8]): 390 nM; GI50 (SW-620 (colon); [9]): 389 nM; GI50 (SF-268 (CNS); [8]): 1920 nM; GI50 (SF-268 (CNS); [9]): 1910 nM; GI50 (SK-MEL-2 (melanoma); [8]): 2060 nM; GI50 (SK-MEL-2 (melanoma); [9]): 2040 nM; GI50 (UO-31 (renal); [8]): 1510 nM; GI50 (UO-31 (renal); [9]): 1510 nM; GI50 (UACC-62 (melanoma); [8]): 1520 nM; GI50 (UACC-62 (melanoma); [9]): 1510 nM; GI50 (SF-295 (CNS); [8]): 1900 nM; GI50 (SF-295 (CNS); [9]): 1910 nM; GI50 (M14 (melanoma); [8]): 1350 nM; GI50 (M14 (melanoma); [9]): 1350 nM; GI50 [6, 8]: 950 nM; GI50 [6, 9]: 955 nM; GI50 (TD-47D (breast); [8]): 2190 nM; GI50 (TD-47D (breast); [9]): 2190 nM; GI50 [7, 8]: 1400 nM; GI50 [7, 9]: 1410 nM
